Data as given in paper PMC9873571, “Plant-specific features of respiratory supercomplex I + III2 from Vigna radiata” (Nature Plants, 2022).

Experiments:
[1] = molecular target: T1, V. radiata SC I + III2 (complex I, quinone-binding site) (Vigna radiata, UniProt A0A1S3U8J5+E9KZL0+E9KZN6); experiment: NADH-cytochrome c oxidoreductase activity, A550; format: biochemical; settings: 20 mM HEPES pH 7.4, 50 mM NaCl, 10% glycerol, 100 µM decylubiquinone, 100 µM equine cyt c, 10 µM NADH, 4 μM KCN
T1 construct: gene nad7; native complex I (14 core + 34 accessory subunits) in supercomplex I + III2, from etiolated hypocotyl mitochondria, digitonin-extracted, amphipol A8-35 stabilized, SEC purified; assayed as NADH-cyt c oxidoreductase; nad1 and NDUS2 transcripts RNA-edited

[2] = molecular target: T2, V. radiata complex I (CI), NADH dehydrogenase site (Vigna radiata, UniProt A0A1S3V7V2); experiment: NADH-cytochrome c oxidoreductase activity of purified SC I + III2; format: biochemical; settings: 10 µM NADH, 100 µM decylubiquinone, 100 µM equine cyt c, pH 7.4
T2 construct: gene LOC106772405; native complex I, in purified supercomplex I + III2 (NADH) or in washed mitochondrial membranes (dNADH)
T2 sequence (A0A1S3V7V2 28-491): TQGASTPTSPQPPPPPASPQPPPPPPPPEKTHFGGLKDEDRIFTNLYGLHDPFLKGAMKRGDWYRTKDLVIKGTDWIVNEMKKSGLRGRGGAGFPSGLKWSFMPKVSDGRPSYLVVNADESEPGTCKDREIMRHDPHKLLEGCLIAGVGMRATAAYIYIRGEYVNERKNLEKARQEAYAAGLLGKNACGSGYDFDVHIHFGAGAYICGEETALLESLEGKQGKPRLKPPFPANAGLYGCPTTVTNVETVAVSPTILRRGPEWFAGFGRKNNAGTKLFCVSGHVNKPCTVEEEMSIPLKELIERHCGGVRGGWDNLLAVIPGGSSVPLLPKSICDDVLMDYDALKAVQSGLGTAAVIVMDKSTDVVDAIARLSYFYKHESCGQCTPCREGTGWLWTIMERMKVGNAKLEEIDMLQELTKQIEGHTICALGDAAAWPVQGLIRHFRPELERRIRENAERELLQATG
T2 sequence (A0A1S3TQ85 32-746 partner): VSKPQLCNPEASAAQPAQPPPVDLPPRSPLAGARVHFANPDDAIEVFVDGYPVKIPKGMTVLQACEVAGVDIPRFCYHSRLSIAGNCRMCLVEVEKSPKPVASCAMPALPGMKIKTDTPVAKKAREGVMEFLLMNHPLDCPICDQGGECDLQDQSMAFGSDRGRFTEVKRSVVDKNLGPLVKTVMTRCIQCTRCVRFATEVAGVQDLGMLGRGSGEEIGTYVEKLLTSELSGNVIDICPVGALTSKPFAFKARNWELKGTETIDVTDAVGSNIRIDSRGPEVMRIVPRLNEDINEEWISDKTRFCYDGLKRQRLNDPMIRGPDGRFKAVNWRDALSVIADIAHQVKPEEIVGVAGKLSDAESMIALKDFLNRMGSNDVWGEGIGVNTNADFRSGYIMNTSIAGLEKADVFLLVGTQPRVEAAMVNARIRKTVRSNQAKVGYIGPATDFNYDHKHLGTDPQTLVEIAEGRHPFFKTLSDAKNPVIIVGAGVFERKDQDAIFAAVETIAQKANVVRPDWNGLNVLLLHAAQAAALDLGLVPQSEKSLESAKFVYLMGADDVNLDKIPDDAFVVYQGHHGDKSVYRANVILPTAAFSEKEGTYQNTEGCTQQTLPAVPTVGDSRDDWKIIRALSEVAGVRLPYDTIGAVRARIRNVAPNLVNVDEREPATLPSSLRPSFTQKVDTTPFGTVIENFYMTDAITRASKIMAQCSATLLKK
T2 sequence (A0A1S3U769 25-251 partner): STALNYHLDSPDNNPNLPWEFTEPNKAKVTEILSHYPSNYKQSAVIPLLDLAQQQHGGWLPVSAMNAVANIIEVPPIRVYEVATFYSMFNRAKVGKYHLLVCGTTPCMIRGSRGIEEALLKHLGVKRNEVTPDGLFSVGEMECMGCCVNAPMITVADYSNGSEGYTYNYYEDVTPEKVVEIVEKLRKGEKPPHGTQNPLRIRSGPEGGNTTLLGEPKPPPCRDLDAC

T1 sequence (E9KZN6 entry or part of it): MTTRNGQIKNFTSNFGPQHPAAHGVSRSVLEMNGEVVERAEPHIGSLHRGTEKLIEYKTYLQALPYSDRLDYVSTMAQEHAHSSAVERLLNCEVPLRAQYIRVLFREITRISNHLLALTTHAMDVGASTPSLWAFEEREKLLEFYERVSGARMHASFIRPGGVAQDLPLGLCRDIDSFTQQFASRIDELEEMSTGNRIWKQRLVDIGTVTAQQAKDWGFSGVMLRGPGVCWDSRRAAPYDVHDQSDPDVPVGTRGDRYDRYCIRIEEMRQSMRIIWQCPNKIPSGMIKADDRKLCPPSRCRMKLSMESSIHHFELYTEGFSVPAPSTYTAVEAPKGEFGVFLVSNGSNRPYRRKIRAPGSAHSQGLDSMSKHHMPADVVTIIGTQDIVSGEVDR
T1 sequence (E9KZL0 entry or part of it): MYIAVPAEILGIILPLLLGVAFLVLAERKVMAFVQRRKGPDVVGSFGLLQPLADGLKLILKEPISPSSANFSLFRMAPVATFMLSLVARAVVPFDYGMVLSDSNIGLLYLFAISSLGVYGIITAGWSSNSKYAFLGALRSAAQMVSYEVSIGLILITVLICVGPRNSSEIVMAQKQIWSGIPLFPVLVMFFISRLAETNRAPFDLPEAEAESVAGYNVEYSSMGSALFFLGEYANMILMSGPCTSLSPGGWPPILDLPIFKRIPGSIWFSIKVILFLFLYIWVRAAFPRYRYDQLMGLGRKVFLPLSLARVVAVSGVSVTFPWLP
T1 sequence (A0A1S3U8J5 entry or part of it): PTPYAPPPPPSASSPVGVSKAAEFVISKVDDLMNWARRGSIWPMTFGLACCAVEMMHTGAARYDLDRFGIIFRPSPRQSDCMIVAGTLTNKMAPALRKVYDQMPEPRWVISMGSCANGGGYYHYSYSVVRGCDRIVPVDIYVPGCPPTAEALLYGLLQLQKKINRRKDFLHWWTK

Compound | inhibition at 20 μM [1] | NADH-cytochrome c oxidoreductase activity of purified SC I + III2 [2]
C/C=C(\C)[C@H](O)[C@H](C)/C=C(C)/C=C/C/C(C)=C/Cc1nc(OC)c(OC)c(O)c1C [piericidin A] | inhibited by CI and CIII2 inhibitors piericidin A and antimycin A, respectively | –
NC(=O)C1=CN([C@@H]2O[C@H](COP(=O)(O)OP(=O)(O)OC[C@H]3O[C@@H](n4cnc5c(N)ncnc54)[C@H](O)[C@@H]3O)[C@@H](O)[C@H]2O)C=CC1 [NADH] | – | The final biochemical sample showed the expected NADH-cyt c oxidoreductase activity
